# What was measured:
# [1] = tested on: AChE; test: AChE immunoreactivity (MICE assay); assay type: cell-based; conditions: 10 mM for 3 hours; control and ethanol-exposed cells
# Description: In vitro experiments were used to examine the effects of ethanol on receptor binding and choline acetyltransferase (ChAT) and acetylcholinesterase (AChE) expression in cerebellar neurons. Primary neuronal cultures were generated with postnatal day 8 rat pup cerebellar tissue (Nikolic et al. Genes Dev. 10:816 (1996)). The cultures were maintained with Dulbecco's modified Eagle's medium (DMEM) supplemented with 5% fetal calf serum, 4 mM glutamine, 100 μM non-essential amino acid mixture (Gibco-BRL, Grand Island, N.Y.), 25 mM KCl, and 9 g/L glucose. […] To examine the effects of membrane cholesterol content on growth factor stimulated neuronal viability and function, identically treated 96-well cultures were stimulated with vehicle, 10 nM insulin, 10 nM IGF-I, or 25 nM IGF-II for 10 minutes and then analyzed for ATP content, or for 16 hours and then used to measure viability and ChAT or AChE immunoreactivity with the MICE assay (de la Monte et al., Biotechniques 26:1073 (1999)). ATP content was measured with the ATPLite assay (Packard, Meriden, Conn.). Viability was measured using the CyQuant assay (Molecular Probes, Eugene, Oreg.). Immunoreactivity was measured directly in the cultured wells using the microtiter immunocytochemical ELISA (MICE) assay (de la Monte et al., Biotechniques 26:1073 (1999)). […]
# [2] = tested on: primary cerebellar neuron cultures; conditions: 10 mM for 3 hours; control and ethanol-exposed cultures
# Description: In vitro experiments were used to examine the effects of ethanol on receptor binding and choline acetyltransferase (ChAT) and acetylcholinesterase (AChE) expression in cerebellar neurons. Primary neuronal cultures were generated with postnatal day 8 rat pup cerebellar tissue (Nikolic et al. Genes Dev. 10:816 (1996)). The cultures were maintained with Dulbecco's modified Eagle's medium (DMEM) supplemented with 5% fetal calf serum, 4 mM glutamine, 100 μM non-essential amino acid mixture (Gibco-BRL, Grand Island, N.Y.), 25 mM KCl, and 9 g/L glucose. Ethanol treatment was accomplished by placing the cultures (seeded in 6-well dishes or 96-well plates) in sealed chambers in which 50 mM ethanol was vaporized from a reservoir tray (de la Monte et al. Alcohol Clin. Exp. Res. 24:716 (2000); Banerjee et al. Alcohol Clin. Exp. Res. 22:2093 (1998)). Control cultures were identically treated but with water added to the reservoir tray. The chambers were flushed with gas containing 75% nitrogen, 20% oxygen, and 5% carbon dioxide. After 96 hours incubation at 37° C., the cells were harvested to measure insulin, IGF-I, and IGF-II receptor binding. Alternatively, the cells were serum-starved for 12 hours and then stimulated with 10 nM insulin, […], 25 nM IGF-II, or vehicle for 16 hours, and RNA was harvested to measure ChAT and AChE expression. Parallel 96-well cultures stimulated with growth factors for 10 minutes were used to measure ATP, or for 16 hours to measure viability, and ChAT or AChE immunoreactivity. […] To examine the effects of membrane cholesterol content on growth factor stimulated neuronal viability and function, identically treated 96-well cultures were stimulated with vehicle, 10 nM insulin, 10 nM IGF-I, or 25 nM IGF-II for 10 minutes and then analyzed for ATP content, or for 16 hours and then used to measure viability and ChAT or AChE immunoreactivity with the MICE assay (de la Monte et al., Biotechniques 26:1073 (1999)). ATP content was measured with the ATPLite assay (Packard, Meriden, Conn.). Viability was measured using the CyQuant assay (Molecular Probes, Eugene, Oreg.). Immunoreactivity was measured directly in the cultured wells using the microtiter immunocytochemical ELISA (MICE) assay (de la Monte et al., Biotechniques 26:1073 (1999)).
# The effects of cholesterol or MβCD treatment on neuronal viability (FIGS. 19A-19C), ATP production (energy metabolism; FIGS. 19D-19F), ChAT (FIGS. […]) and AChE (FIGS. 19J-19L) immunoreactivity were examined in cells that were treated as described above and stimulated 12 hours with vehicle (control), 10 nM insulin, 10 nM IGF-I, or 25 nM IGF-II in serum-free medium. […] Viability was measured using the CyQuant assay and ATP content was measured using the ATPLite assay. […]
# [3] = tested on: IGF-II receptors; conditions: pup cerebellar membrane extracts, chronic gestational ethanol exposure relative to control; not dose-dependent
# Description: (§1) Fresh frozen tissue (˜100 mg) was homogenized in 5 volumes of NP-40 lysis buffer (50 mM Tris-HCl, pH 7.5, 1% NP-40, 150 mM NaCl, 1 mM EDTA, 2 mM EGTA) containing protease inhibitors (1 mM PMSF, 0.1 mM TPCK, 1 μg/ml aprotinin, 1 μg/ml pepstatin A, 0.5 μg/ml leupeptin, 1 mM NaF, 1 mM Na4P2O7). Protein concentrations were determined using the bicinchoninic acid (BCA) assay (Pierce, Rockford, Ill.). Exploratory studies determined the amounts of protein and concentrations of radiolabeled ligand required to achieve 20% specific binding. Insulin receptor binding assays were performed using 100 μg protein. IGF-I binding assays required 25 μg protein per sample, and IGF-II receptor binding assays were optimized using 10 μg protein. […]
# (§2) All reactions were performed in 1.5 ml Eppendorff tubes, and the incubations were performed at 4° C. for 16 hours with gentle platform agitation. […] The samples were counted for 1 minute in an LKB CompuGamma CS Gamma counter. Specific binding was calculated by subtracting fmol of non-specific binding, i.e., amount bound in the presence of cold ligand, from the total fmol bound (absence of unlabeled competitive ligand). The results were analyzed and plotted using the GraphPad Prism 4 software (GraphPad Software, Inc., San Diego, Calif.).
# [4] = tested on: insulin receptors; conditions: pup cerebellar membrane extracts, chronic gestational ethanol exposure relative to control; not dose-dependent
# Description: as §1, §2
# [5] = tested on: IGF-I receptors; conditions: pup cerebellar membrane extracts, chronic gestational ethanol exposure relative to control; not dose-dependent
# Description: as §1, §2
Compound,mean levels of AChE [1],mitochondrial function (ATP content) [2],neuronal viability [2],impairment of IGF-II receptor binding [3],impairment of insulin receptor binding [4],impairment of IGF-I receptor binding [5]
CC(C)CCC[C@@H](C)[C@H]1CC[C@H]2[C@@H]3CC=C4C[C@@H](O)CC[C@]4(C)[C@H]3CC[C@]12C [cholesterol],significantly increased,broadly reduced,broadly reduced,–,–,–
CCO [ethanol],–,–,–,~50%,~80%,~80%
Methyl-β-cyclodextrin [MβCD],significantly increased,broadly reduced,broadly reduced,–,–,–

# — patent US9308198B2, “Treatment, prevention, and reversal of alcohol-induced brain disease” (priority 2006, dated 2016)
